Laboratory results taken from patent US20230293539A1, “MLL1-WDR5 PROTEIN-PROTEIN INTERACTION INHIBITOR COMPOUNDS AND USES THEREOF” (HUYABIO International, LLC, priority 2022, published 2023).

Columns and labels:
MV 411 cells = assay: Cell Viability Assay (CellTiter-Glo); format: cell-based; conditions: Homo sapiens, MV4-11, 72 hours, read-out: IC50 (anti-proliferative activity against leukemia cells)
Protocol: Cell lines and maintenance: All cell lines (MV 411) used for in vitro and in vivo studies were supplied as part of Wuxi AppTech cell bank. Cell lines were maintained in a medium supplemented with 10% heat inactivated fetal bovine serum at 37° C., in an atmosphere of 5% CO2, in air. The tumor cells were routinely subcultured twice weekly. The cells growing in an exponential growth phase were used for the in vitro cell potency and in vivo efficacy studies.
EXAMPLE 1: Cell Viability Assay: For cell cytotoxicity assays, 2000 cells/well were plated in 384-well plates. Twenty four hours after plating, cells were treated with inhibitors at the indicated compound concentrations. On Day 3 (72 hours), cells were lysed with CellTiter-Glo® Luminescent Cell Viability Assay reagent (Promega) and luminescence was read using the EnVision Multi-plate reader. To calculate IC50, a dose-response curve is generated using a nonlinear regression model with a sigmoidal dose response. The formula of surviving rate is shown below. IC50 values were automatically generated by GraphPad Prism 8.0. See FIG. 1A and FIG. 1B and Tables 3 and 4.

BRD2-BD2 = biological target: T1, BRD2-BD2 (Homo sapiens, UniProt P25440); assay: Selectivity panel (Table 3); format: binding
T1 construct: BRD2-BD2

BRD3-BD1 = biological target: T2, BRD3-BD1 (Homo sapiens, UniProt Q15059); assay: Selectivity panel (Table 3); format: binding
T2 construct: BRD3-BD1

BRD4-BD1 = biological target: T3, BRD4-BD1 (Homo sapiens, UniProt O60885); assay: Selectivity panel (Table 3); format: binding
T3 construct: BRD4-BD1

BRDT-BD1 = biological target: T4, BRDT-BD1 (Homo sapiens, UniProt Q58F21); assay: Selectivity panel (Table 3); format: binding
T4 construct: BRDT-BD1

CD73 = CD73 (Homo sapiens, UniProt P21589); assay: Selectivity panel (Table 3); format: biochemical
HDAC1 = HDAC1 (Homo sapiens, UniProt Q13547); assay: Selectivity panel (Table 3); format: biochemical
HDAC2 = HDAC2 (Homo sapiens, UniProt Q92769); assay: Selectivity panel (Table 3); format: biochemical
KRAS G12C = KRAS G12C (Homo sapiens, UniProt P01116, G12C); assay: Selectivity panel (Table 3); format: binding
KRAS G12D = KRAS G12D (Homo sapiens, UniProt P01116, G12D); assay: Selectivity panel (Table 3); format: binding
LSD1 = LSD1 (Homo sapiens, UniProt O60341); assay: Selectivity panel (Table 3); format: biochemical
PD-1/PD-L1 = PD-1/PD-L1 (Homo sapiens, UniProt Q9NZQ7); assay: Selectivity panel (Table 3); format: binding
POLQ ATPase = POLQ ATPase (Homo sapiens, UniProt O75417); assay: Selectivity panel (Table 3); format: biochemical
POLQPolymerase = POLQPolymerase (Homo sapiens, UniProt O75417); assay: Selectivity panel (Table 3); format: biochemical
PTP1B = PTP1B (Homo sapiens, UniProt P18031); assay: Selectivity panel (Table 3); format: biochemical
SHP2 E76K = SHP2 E76K (Homo sapiens, UniProt Q06124, E76K); assay: Selectivity panel (Table 3); format: biochemical
TEAD1 = TEAD1 (Homo sapiens, UniProt P28347); assay: Selectivity panel (Table 3); format: binding
WIP 1 = WIP 1 (Homo sapiens, UniProt O15297); assay: Selectivity panel (Table 3); format: biochemical
[1] = Compound formulation stability assay; format: physicochemical; conditions: 10 mg/mL in 10% DMSO/10% solutol HS 15/80% water, 2-8° C.
Protocol: Compound formulation stability assay: Test articles were formulated in 10% DMSO/10% solutol HS 15/80% water and stored at 4° C. Formulated compounds were analyzed by a HPLC-UV method for actual concentrations and % remaining on Day 1, 4 and 7 after formulation to determine the stability of the formulated test article. The HPLC system was equipped with Shimadzu LC-20 high-performance liquid chromatograph, SIL-20AC auto sampler, LC-20AB pump and SPD-M20A detector. A Waters XBridge C18 (4.6*100 mm) column was applied for the separation. […]

Dog PK (oral) = format: in vivo, Beagle dogs; conditions: for Cmax / AUC(0-t) / half-life: Beagle, plasma
Protocol: Dog PK: Fasted or fed non-naïve Beagle dogs (Marshall Bioresources, Beijing, China) were administered a single intravenous bolus or oral gavage administration of test compounds at respective doses. Blood samples for plasma isolation were collected from a peripheral vessel, from restrained, non-sedated animals at the respective sampling time points. The quantification of compound concentrations in dog plasma was quantified using LC-MS/MS method. Plasma concentration versus time data was analyzed by non-compartmental mode approaches using the WinNonlin software program (version 6.3 or above, Pharsight). Pharmacokinetic parameters, including C0, CL, Vdss, Cmax, Tmax T1/2, AUC0-last, AUC0-inf, MRT0-last, MRT0-inf, bioavailability (%) for IV and PO groups were calculated. See FIGS. 9A, […], 9C and FIGS. 10A, 10B, 10C, and 10D.

[2] = Metabolite ID in Liver S9; format: in vitro ADME; conditions: HBI-2375 and metabolites in Monkey liver S9
hERG = hERG (Homo sapiens, UniProt Q12809); assay: hERG IC50; format: cell-based
hERG, sequence (Q12809 whole entry): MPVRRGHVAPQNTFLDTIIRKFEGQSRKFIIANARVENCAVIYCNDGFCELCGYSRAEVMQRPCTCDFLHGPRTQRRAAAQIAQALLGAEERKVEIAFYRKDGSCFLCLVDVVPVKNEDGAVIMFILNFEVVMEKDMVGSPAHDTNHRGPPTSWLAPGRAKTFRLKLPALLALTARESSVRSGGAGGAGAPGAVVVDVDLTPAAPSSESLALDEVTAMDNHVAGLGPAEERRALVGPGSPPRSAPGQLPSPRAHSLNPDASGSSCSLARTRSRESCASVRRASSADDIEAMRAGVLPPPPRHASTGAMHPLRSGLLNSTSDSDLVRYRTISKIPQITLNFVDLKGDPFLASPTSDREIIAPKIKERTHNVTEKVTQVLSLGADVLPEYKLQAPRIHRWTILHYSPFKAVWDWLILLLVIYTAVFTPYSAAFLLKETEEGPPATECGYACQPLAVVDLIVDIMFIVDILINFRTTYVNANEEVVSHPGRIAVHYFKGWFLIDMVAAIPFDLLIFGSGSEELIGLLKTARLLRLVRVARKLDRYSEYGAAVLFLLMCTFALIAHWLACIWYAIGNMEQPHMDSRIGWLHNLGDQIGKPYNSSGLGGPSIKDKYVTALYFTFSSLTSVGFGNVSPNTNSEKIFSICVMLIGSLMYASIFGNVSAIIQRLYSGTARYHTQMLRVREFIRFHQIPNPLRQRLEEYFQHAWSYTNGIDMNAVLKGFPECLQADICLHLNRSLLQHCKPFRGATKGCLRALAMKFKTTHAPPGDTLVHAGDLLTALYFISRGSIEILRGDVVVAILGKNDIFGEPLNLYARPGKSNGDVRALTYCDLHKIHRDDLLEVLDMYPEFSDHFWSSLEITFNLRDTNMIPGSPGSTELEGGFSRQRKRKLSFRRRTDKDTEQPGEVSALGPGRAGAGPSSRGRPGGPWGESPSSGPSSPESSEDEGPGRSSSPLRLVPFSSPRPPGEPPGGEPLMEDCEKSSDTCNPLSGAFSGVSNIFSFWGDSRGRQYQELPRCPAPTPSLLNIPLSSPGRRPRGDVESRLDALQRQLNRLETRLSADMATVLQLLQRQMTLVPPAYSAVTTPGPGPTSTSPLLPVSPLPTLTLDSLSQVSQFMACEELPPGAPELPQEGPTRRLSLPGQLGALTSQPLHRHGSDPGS

PD-1/PD-L1, sequence (Q9NZQ7 19-238 limits assumed): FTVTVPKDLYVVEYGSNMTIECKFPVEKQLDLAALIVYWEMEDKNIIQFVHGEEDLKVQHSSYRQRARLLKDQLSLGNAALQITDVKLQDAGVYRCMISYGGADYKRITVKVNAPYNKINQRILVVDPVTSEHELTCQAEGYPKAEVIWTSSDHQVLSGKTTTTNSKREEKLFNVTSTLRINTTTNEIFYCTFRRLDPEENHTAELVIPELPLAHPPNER
T2 sequence (Q15059 34-140 limits assumed): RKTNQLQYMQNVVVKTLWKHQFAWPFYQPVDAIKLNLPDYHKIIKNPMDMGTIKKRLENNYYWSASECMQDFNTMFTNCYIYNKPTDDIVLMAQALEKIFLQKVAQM
HDAC2, sequence (Q92769 whole entry, species assumed): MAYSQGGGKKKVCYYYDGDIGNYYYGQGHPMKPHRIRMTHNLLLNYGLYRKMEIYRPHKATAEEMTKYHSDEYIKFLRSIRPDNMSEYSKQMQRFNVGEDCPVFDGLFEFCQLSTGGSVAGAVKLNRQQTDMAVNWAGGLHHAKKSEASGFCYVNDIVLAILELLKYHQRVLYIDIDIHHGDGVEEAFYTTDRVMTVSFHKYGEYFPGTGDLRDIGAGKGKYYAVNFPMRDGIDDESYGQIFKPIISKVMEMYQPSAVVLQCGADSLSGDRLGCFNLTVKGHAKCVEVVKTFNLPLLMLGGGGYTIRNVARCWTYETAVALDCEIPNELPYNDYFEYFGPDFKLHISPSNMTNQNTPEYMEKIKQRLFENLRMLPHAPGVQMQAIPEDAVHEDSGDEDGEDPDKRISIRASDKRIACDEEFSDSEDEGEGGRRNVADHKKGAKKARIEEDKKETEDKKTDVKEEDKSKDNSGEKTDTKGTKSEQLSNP
CD73, sequence (P21589 27-549, species assumed): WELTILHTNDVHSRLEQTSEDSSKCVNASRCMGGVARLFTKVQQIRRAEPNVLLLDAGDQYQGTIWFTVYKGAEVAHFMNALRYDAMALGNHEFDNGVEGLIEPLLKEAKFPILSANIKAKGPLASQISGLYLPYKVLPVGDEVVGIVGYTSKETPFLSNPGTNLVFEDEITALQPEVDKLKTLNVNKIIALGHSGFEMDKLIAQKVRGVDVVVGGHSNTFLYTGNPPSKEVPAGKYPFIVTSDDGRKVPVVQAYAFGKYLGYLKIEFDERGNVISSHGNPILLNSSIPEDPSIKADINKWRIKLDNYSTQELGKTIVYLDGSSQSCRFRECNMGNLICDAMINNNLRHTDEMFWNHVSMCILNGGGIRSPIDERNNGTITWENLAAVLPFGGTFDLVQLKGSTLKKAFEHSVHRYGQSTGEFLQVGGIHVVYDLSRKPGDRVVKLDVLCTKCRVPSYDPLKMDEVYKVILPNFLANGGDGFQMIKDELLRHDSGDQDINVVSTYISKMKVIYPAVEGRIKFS
HDAC1, sequence (Q13547 whole entry, species assumed): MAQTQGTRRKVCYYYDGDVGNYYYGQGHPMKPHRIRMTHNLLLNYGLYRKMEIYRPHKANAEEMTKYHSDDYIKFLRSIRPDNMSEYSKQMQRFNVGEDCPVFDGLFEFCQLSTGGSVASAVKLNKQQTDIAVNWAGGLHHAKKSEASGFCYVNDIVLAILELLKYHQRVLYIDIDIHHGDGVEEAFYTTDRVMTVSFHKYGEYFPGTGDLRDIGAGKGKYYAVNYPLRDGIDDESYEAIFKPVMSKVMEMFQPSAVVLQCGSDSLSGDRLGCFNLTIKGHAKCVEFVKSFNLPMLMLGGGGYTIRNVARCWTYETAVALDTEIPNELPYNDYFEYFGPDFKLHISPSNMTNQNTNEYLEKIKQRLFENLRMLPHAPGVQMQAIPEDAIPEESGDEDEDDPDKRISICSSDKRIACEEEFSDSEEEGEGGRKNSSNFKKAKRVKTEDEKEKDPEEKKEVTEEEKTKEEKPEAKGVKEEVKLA
TEAD1, sequence (P28347 whole entry, species assumed): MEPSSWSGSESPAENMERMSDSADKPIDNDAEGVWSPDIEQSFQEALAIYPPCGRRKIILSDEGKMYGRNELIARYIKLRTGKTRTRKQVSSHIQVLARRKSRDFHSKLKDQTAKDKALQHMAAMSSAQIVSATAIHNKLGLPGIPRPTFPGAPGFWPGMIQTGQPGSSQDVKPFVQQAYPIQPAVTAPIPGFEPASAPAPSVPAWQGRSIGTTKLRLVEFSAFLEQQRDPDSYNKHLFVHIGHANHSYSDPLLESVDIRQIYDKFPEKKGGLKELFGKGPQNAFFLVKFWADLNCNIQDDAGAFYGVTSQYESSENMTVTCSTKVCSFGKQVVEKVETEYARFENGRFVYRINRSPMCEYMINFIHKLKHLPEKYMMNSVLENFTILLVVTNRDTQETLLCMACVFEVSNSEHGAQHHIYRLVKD
KRAS G12C, sequence (P01116 1-188 isoform P01116-2 G12C): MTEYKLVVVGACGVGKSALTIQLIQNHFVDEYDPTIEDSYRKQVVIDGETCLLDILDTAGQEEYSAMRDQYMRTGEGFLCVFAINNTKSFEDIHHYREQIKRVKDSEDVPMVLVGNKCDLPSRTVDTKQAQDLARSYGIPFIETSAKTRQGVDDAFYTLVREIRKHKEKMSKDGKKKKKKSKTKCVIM
SHP2 E76K, sequence (Q06124 whole entry E76K): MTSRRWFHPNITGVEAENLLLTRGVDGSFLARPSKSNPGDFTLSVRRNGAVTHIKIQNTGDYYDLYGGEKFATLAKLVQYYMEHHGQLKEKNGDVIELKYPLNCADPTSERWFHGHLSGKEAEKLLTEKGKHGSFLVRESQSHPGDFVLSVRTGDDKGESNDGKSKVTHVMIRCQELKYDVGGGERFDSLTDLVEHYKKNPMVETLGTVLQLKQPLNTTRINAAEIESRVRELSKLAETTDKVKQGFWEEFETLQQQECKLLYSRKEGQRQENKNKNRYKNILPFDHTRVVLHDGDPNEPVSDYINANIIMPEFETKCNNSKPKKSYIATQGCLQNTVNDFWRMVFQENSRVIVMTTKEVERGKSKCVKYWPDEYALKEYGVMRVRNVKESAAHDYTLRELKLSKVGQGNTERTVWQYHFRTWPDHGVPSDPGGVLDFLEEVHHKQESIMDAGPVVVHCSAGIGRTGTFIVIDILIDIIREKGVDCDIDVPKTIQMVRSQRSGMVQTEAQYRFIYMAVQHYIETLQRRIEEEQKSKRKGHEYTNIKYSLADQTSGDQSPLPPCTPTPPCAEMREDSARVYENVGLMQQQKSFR
WIP 1, sequence (O15297 whole entry, species assumed): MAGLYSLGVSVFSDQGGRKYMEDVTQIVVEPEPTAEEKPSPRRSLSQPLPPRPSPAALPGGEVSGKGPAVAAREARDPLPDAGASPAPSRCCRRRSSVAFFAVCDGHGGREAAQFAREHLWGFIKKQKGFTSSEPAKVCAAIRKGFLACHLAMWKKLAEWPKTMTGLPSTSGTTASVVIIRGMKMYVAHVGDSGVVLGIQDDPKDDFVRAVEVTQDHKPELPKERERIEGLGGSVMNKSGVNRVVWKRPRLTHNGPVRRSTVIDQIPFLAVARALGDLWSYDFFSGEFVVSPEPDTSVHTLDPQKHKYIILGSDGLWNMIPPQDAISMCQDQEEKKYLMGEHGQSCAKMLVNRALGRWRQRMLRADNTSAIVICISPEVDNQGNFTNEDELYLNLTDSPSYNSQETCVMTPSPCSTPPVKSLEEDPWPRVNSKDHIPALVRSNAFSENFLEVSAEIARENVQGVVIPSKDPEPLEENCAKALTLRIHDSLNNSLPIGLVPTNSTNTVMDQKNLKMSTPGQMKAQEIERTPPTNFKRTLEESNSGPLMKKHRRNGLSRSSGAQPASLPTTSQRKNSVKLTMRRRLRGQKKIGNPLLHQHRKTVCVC
T1 sequence (P25440 344-453 limits assumed): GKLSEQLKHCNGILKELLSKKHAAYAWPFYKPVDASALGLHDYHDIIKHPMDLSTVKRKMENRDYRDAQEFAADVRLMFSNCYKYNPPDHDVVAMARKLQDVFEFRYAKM

For Cc1c(F)c(N)cc(C(=O)Nc2cc(-n3cc(C(=O)N4CCN(C)CC4)nn3)c(F)cc2N2C[C@@H](C)N(C)[C@@H](C)C2)c1Cl [HYBI-084, 5-amino-2-chloro-4-fluoro-N-(4-fluoro-5-(4-(4-methylpiperazine-1-carbonyl)-1H-1,2,3-triazol-1-yl)-2-((3S,5R)-3,4,5-trimethylpiperazin-1-yl)phenyl)-3-methylbenzamide], the IC50 (MV 411 cells) was 3.17 µM, the IC50 (BRD2-BD2) was > 1 µM and the IC50 (BRD3-BD1) was > 1 µM. For the same molecule, the IC50 (BRD4-BD1) was > 1 µM, the IC50 (BRDT-BD1) was > 1 µM and the IC50 (CD73) was > 1 µM. The IC50 (HDAC1) was > 1 µM, the IC50 (HDAC2) was > 1 µM and the IC50 (KRAS G12C) was > 1 µM. The IC50 (KRAS G12D) was > 1 µM, the IC50 (LSD1) was > 1 µM and the IC50 (PD-1/PD-L1) was > 1 µM. For the same molecule, the IC50 (POLQ ATPase) was > 1 µM, the IC50 (POLQPolymerase) was > 1 µM and the IC50 (PTP1B) was > 1 µM. The IC50 (SHP2 E76K) was > 1 µM, the IC50 (TEAD1) was > 1 µM and the IC50 (WIP 1) was > 1 µM. For the same molecule, the “Accuracy % (Day 0)” value ([1]; Day 0) was 92.8%, the “Formulation Appearance (Day 0)” value ([1]; Day 0) was “clear solution” and the “Remaining % (Day 0)” value ([1]; Day 0) was 100%. The “Accuracy % (Day 1)” value ([1]; Day 1) was 93.4%, the “Formulation Appearance (Day 1)” value ([1]; Day 1) was “clear solution” and the “Remaining % (Day 1)” value ([1]; Day 1) was 101%. The “Accuracy % (Day 4)” value ([1]; Day 4) was 92.9%, the “Formulation Appearance (Day 4)” value ([1]; Day 4) was “clear solution” and the “Remaining % (Day 4)” value ([1]; Day 4) was 100%. The “Accuracy % (Day 7)” value ([1]; Day 7) was 91.5%, the “Formulation Appearance (Day 7)” value ([1]; Day 7) was “clear solution” and the “Remaining % (Day 7)” value ([1]; Day 7) was 98.7%. It also gave an F (Dog PK (oral); 1.5 mpk) of 11.4%, an F (Dog PK (oral); 4.5 mpk) of 37.7% and a Cmax (Dog PK (oral); 1.5 mg/kg, 1.5 mpk) of 8.4 nM. For the same molecule, the Cmax (Dog PK (oral); 4.5 mg/kg, 4.5 mpk) was 47.6 nM, the AUC(0-t) (Dog PK (oral); 1.5 mg/kg, 1.5 mpk) was 0.0466 µM·h and the half-life (Dog PK (oral); 1.5 mg/kg, 1.5 mpk) was 7.5 h. The AUC(0-t) (Dog PK (oral); 4.5 mg/kg, 4.5 mpk) was 0.459 µM·h, the half-life (Dog PK (oral); 4.5 mg/kg, 4.5 mpk) was 6.3 h and the “Relative Abundance (UV Peak Area % Total)” value [2] was 34.68%. The IC50 (hERG) was 22.2 µM.
